# Target: human TYK2 (JH2domain-pseudokinase) (Homo sapiens (Human), UniProt P29597)
# Test: TYK2 JH2 Domain Binding Assay (KINOMEscan)
# Conditions: 11-point 3-fold dilution, top concentration 30,000 nM, duplicate; read-out: hTYK2_JH2_Binding (Kd; nM)
# In short: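 KINOMEscan competition binding: HEK293-expressed NFkB-fused TYK2 JH2 (G556–D888), DNA-tagged, against immobilized ligand beads, 1 h shaking at room temperature, 0.9% DMSO. Bound kinase quantified by qPCR.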
# Sequence of human TYK2 (JH2domain-pseudokinase) (P29597 556-888): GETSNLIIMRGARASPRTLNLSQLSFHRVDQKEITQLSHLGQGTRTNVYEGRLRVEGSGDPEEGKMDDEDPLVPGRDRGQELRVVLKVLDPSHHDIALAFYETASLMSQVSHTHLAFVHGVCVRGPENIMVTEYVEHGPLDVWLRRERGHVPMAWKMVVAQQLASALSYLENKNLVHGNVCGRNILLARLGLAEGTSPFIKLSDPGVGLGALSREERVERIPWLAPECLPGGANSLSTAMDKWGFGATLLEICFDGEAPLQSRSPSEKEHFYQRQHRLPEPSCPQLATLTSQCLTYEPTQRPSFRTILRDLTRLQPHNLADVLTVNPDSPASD
row,Kd,SMILES
1,0.2 to 1 nM,"CNc1cc(Nc2cccn(C(C)C)c2=O)nc2c(C(=O)N[C@@H]3C[C@H]3OC)cnn12 [Compound I-29, 5-((1-Isopropyl-2-oxo-1,2-dihydropyridin-3-yl)amino)-N-((1R,2R)-2-methoxycyclopropyl)-7-(methylamino)pyrazolo[1,5-a]pyrimidine-3-carboxamide]"
2,1 to 10 nM,"CNc1cc(Nc2cccn([C@H]3CC[C@H]3O)c2=O)nc2c(C(=O)N[C@@H]3CC[C@@H](OC)C3)cnn12 [Compound I-85, 5-((1-((1S,2R)-2-Hydroxycyclobutyl)-2-oxo-1,2-dihydropyridin-3-yl)amino)-N-((1R,3R)-3-methoxycyclopentyl)-7-(methylamino)pyrazolo[1,5-a]pyrimidine-3-carboxamide]"
3,1 to 10 nM,"CNc1cc(Nc2cccn(C3CC(F)(F)C3)c2=O)nc2c(C(=O)N[C@H]3CC[C@H](OC)C3)cnn12 [Compound I-73, 5-((1-(3,3-Difluorocyclobutyl)-2-oxo-1,2-dihydropyridin-3-yl)amino)-N-((1S,3S)-3-methoxycyclopentyl)-7-(methylamino)pyrazolo[1,5-a]pyrimidine-3-carboxamide]"
4,< 0.2 nM,"CO[C@@H]1CCC1NC(=O)c1cnn2c(N)cc(Nc3cccn(-c4ccccn4)c3=O)nc12 (stereo partly drawn) [Compound I-245, 7-Amino-N-((trans-1,2)-2-methoxycyclobutyl)-5-((2-oxo-2H-[1,2′-bipyridin]-3-yl)amino)pyrazolo[1,5-a]pyrimidine-3-carboxamide]"
5,< 0.2 nM,"CNc1cc(Nc2cccn([C@@H]3CC[C@@H]3O)c2=O)nc2c(C(=O)N[C@@H]3CCC[C@@H](OC)C3)cnn12 [Compound I-98, 5-((1-((1R,2S)-2-Hydroxycyclobutyl)-2-oxo-1,2-dihydropyridin-3-yl)amino)-N-((trans-1,3)-3-methoxycyclohexyl)-7-(methylamino)pyrazolo[1,5-a]pyrimidine-3-carboxamide]"
6,< 0.2 nM,CNc1cc(-c2cnc3n(CC(=O)N4CC5(COC5)C4)cccc2-3)nc2c(C(=O)NC3CC[C@@H]3OC)cnn12 (mixture of isomers) [Compound I-970]
7,< 0.2 nM,CNc1cc(-c2cn([C@@H]3CCOC[C@H]3O)c3ncccc23)nc2c(C(=O)NC3CC3)cnn12 [Compound I-499]
8,> 10 nM,CNc1cc(Nc2ccc(F)n(-c3ccccn3)c2=O)nc2c(C(=O)NC3CC3)cnn12 [Compound I-473]
9,0.2 to 1 nM,"CNc1cc(Nc2cccn([C@@H]3CCC[C@@H]3O)c2=O)nc2c(C(=O)N[C@@H]3CC[C@@H](OC)C3)cnn12 [Compound I-78, 5-((1-((1R,2S)-2-Hydroxycyclopentyl)-2-oxo-1,2-dihydropyridin-3-yl)amino)-N-((1R,3R)-3-methoxycyclopentyl)-7-(methylamino)pyrazolo[1,5-a]pyrimidine-3-carboxamide]"
10,< 0.2 nM,CO[C@H]1CC[C@@H]1NC(=O)c1cnn2c3c(c(Nc4cccn([C@H]5[C@@H]6COC[C@@H]65)c4=O)nc12)OCCN3 [Compound I-764]
11,> 10 nM,"CNc1cc(Nc2cccn([C@@H]3CC[C@@H]3O)c2=O)nc2c(C(=O)N[C@H]3CC[C@H](OC)C3)cnn12 [Compound I-82, 5-((1-((1R,2S)-2-Hydroxycyclobutyl)-2-oxo-1,2-dihydropyridin-3-yl)amino)-N-((1S,3S)-3-methoxycyclopentyl)-7-(methylamino)pyrazolo[1,5-a]pyrimidine-3-carboxamide]"
12,< 0.2 nM,"CNc1cc(Nc2cccn(C3CCOCC3)c2=O)nc2c(C(=O)N[C@@H]3C[C@H]3OC)cnn12 [Compound I-27, N-((1R,2R)-2-Methoxycyclopropyl)-7-(methylamino)-5-((2-oxo-1-(tetrahydro-2H-pyran-4-yl)-1,2-dihydropyridin-3-yl)amino)pyrazolo[1,5-a]pyrimidine-3-carboxamide]"
13,0.2 to 1 nM,"CNc1ccc(-c2cc(NC)n3ncc(C(=O)NC4CC4)c3n2)n2ccnc12 [Compound I-478, N-Cyclopropyl-7-(methylamino)-5-(8-(methylamino)imidazo[1,2-a]pyridin-5-yl)pyrazolo[1,5-a]pyrimidine-3-carboxamide]"
14,1 to 10 nM,"CNc1cc(-c2cn([C@H]3CCCOC3)c3ncccc23)nc2c(C(=O)N[C@@H]3COC[C@@H]3O)cnn12 [Compound I-61, N-((3R,4R)-4-Hydroxytetrahydrofuran-3-yl)-7-(methylamino)-5-(1-((S)-tetrahydro-2H-pyran-3-yl)-1H-pyrrolo[2,3-b]pyridin-3-yl)pyrazolo[1,5-a]pyrimidine-3-carboxamide]"
15,0.2 to 1 nM,"CNc1cc(-c2cn([C@H]3CCCOC3)c3ncccc23)nc2c(C(=O)N[C@H]3CC[C@H]3O)cnn12 [Compound I-15, N-((1S,2R)-2-Hydroxycyclobutyl)-7-(methylamino)-5-(1-((S)-tetrahydro-2H-pyran-3-yl)-1H-pyrrolo[2,3-b]pyridin-3-yl)pyrazolo[1,5-a]pyrimidine-3-carboxamide]"
16,< 0.2 nM,O=C(NC1CC1)c1cnn2c3c(c(Nc4cccn(C5CCOCC5)c4=O)nc12)OCCN3 [Compound I-748]
17,1 to 10 nM,"CNc1cc(Nc2cccn([C@H]3C[C@@H]3F)c2=O)nc2c(C(=O)N[C@@H]3CC[C@H]3OC)cnn12 [Compound I-50, 5-((1-((1S,2S)-2-Fluorocyclopropyl)-2-oxo-1,2-dihydropyridin-3-yl)amino)-N-((1R,2R)-2-methoxycyclobutyl)-7-(methylamino)pyrazolo[1,5-a]pyrimidine-3-carboxamide]"
18,> 10 nM,CNc1cc(Nc2cccn(-c3coc(C)n3)c2=O)nc2c(C(=O)NC3CC3)cnn12 [Compound I-121]

row,Kd,SMILES
1,0.2 to 1 nM,"CNc1cc(-c2cnc3n(C4CCN(CCOC)CC4)cccc2-3)nc2c(C(=O)N[C@@H]3CC[C@H]3OC)cnn12 [Compound I-1021, N-((1R,2R)-2-methoxycyclobutyl)-5-(7-(1-(2-methoxyethyl)piperidin-4-yl)-7H-pyrrolo[2,3-b]pyridin-3-yl)-7-(methylamino)pyrazolo[1,5-a]pyrimidine-3-carboxamide]"
2,< 0.2 nM,O=C(N[C@@H]1CC[C@H]1F)c1cnn2c3c(c(-c4cn([C@H]5C[C@H](O)C5)c5ncccc45)nc12)OCCN3 [Compound I-758]
3,< 0.2 nM,CNc1cc(-c2cnc3n([C@@H]4COC[C@H]4OC)cccc2-3)nc2c(C(=O)N[C@@H]3C[C@@H]3F)cnn12 [Compound I-822]
4,< 0.2 nM,CC(C)n1cccc(Nc2nc3c(C(=O)N[C@@H]4CCC4(F)F)cnn3c3c2OCCN3)c1=O [Compound I-767]
5,1 to 10 nM,"CNc1cc(Nc2cccn([C@H]3CC[C@H]3O)c2=O)nc2c(C(=O)N[C@H]3CCC[C@H](OC)C3)cnn12 [Compound I-105, 5-((1-((1S,2R)-2-Hydroxycyclobutyl)-2-oxo-1,2-dihydropyridin-3-yl)amino)-N-((1S,3S)-3-methoxycyclohexyl)-7-(methylamino)pyrazolo[1,5-a]pyrimidine-3-carboxamide]"
6,< 0.2 nM,CNc1cc(Nc2cccn([C@H]3C[C@H](F)C3)c2=O)nc2c(C(=O)N[C@@H]3C[C@H]3OC)cnn12 [Compound I-137]
7,< 0.2 nM,CNc1cc(-c2cn([C@@H]3COC[C@H]3O)c3ncccc23)nc2c(C(=O)NC3CC3)cnn12 [Compound I-497]
8,0.2 to 1 nM,"CNc1cc(Nc2cccn(-c3ncco3)c2=O)nc2c(C(=O)N[C@@H]3CC[C@@H](OC)C3)cnn12 [Compound I-83, N-((1R,3R)-3-Methoxycyclopentyl)-7-(methylamino)-5-((1-(oxazol-2-yl)-2-oxo-1,2-dihydropyridin-3-yl)amino)pyrazolo[1,5-a]pyrimidine-3-carboxamide]"
9,< 0.2 nM,CNc1cc(Nc2cccn(-c3ccccn3)c2=O)nc2c(C(=O)N[C@H]3C[C@H]3F)cnn12 [Compound I-127]
10,< 0.2 nM,CNc1cc(-c2cn([C@H]3C[C@@H](COC)C3)c3ncccc23)nc2c(C(=O)N[C@@H]3CC[C@H]3OC)cnn12 [Compound I-934]
11,1 to 10 nM,"CNc1cc(-c2cn([C@H]3CO[C@@H](COC)C3)c3ncccc23)nc2c(C(=O)N[C@@H]3CC[C@H]3OC)cnn12 [Compound I-1019, N-((1R,2R)-2-methoxycyclobutyl)-5-(1-(5-(methoxymethyl)tetrahydrofuran-3-yl)-1H-pyrrolo[2,3-b]pyridin-3-yl)-7-(methylamino)pyrazolo[1,5-a]pyrimidine-3-carboxamide]"
12,< 0.2 nM,CNc1cc(-c2cn([C@H]3COC[C@@H]3OC)c3ncccc23)nc2c(C(=O)N[C@@H]3C[C@@H]3F)cnn12 [Compound I-504]
13,> 10 nM,O=C(N[C@H]1CCC1(F)F)c1cnn2c3c(c(Nc4cccn([C@H]5[C@@H]6COC[C@@H]65)c4=O)nc12)OCCN3 [Compound I-770]
14,0.2 to 1 nM,"CNc1cc(Nc2cccn([C@@H]3C[C@H]3F)c2=O)nc2c(C(=O)N[C@H]3CC[C@@H]3OC)cnn12 [Compound I-52, 5-((1-((1R,2R)-2-Fluorocyclopropyl)-2-oxo-1,2-dihydropyridin-3-yl)amino)-N-((1S,2S)-2-methoxycyclobutyl)-7-(methylamino)pyrazolo[1,5-a]pyrimidine-3-carboxamide]"
15,< 0.2 nM,CC(C)n1cc(-c2nc3c(C(=O)N[C@@H]4CC[C@@H]4O)cnn3c3c2OCCN3)c2cccnc21 [Compound I-755]
16,< 0.2 nM,"CNc1cc(Nc2cccn([C@H]3C[C@@H](OC)C3)c2=O)nc2c(C(=O)NC3CC3)cnn12 [Compound I-5, N-Cyclopropyl-5-((1-((1s,3s)-3-methoxycyclobutyl)-2-oxo-1,2-dihydropyridin-3-yl)amino)-7-(methylamino)pyrazolo[1,5-a]pyrimidine-3-carboxamide]"
17,< 0.2 nM,O=C(NC1CC1)c1cnn2c3c(c(Nc4cccc5ocnc45)nc12)OCCN3 [Compound I-749]
18,0.2 to 1 nM,"CNc1cc(Nc2cccn(-c3ncco3)c2=O)nc2c(C(=O)NC3CC[C@@H](OC)C3)cnn12 (mixture of isomers) [Compound I-71, N-((trans-1,3)-3-Methoxycyclopentyl)-7-(methylamino)-5-((1-(oxazol-2-yl)-2-oxo-1,2-dihydropyridin-3-yl)amino)pyrazolo[1,5-a]pyrimidine-3-carboxamide]"

# — US11414431B2, “Substituted pyrazolo[1,5-a]pyrimidines as TYK2 inhibitors” (Nimbus Lakshmi, Inc., priority 2018, dated 2022)
